# Data published in patent US20140303109A1 (priority 2010, published 2014).
# How the values were obtained:
# PGE2 = PGE2 immunoassay, three PC lines; assay type: cell-based, human; conditions: 24 h serum-free; CDF or CUR 1-4 μMol/L, GEM 10 nMol/L
# miR-200b and miR-200c = experiment: Real-time RT-PCR of miR-200b and miR-200c in PC cell lines; assay type: cell-based, human; conditions: 72 h; BxPC-3, MIAPaCa-E, MIAPaCaM
# Procedure: The expression of miRNAs (miRNA-200a, miR-200b, and miR-21) in all three pancreatic cancer cell lines, was measured with a TaqMan MicroRNA Assay kit (Applied Biosystems, Carlsbad, Calif.) following the manufacturer's protocol. […] Real-time RT-PCR reactions were then carried out in a total volume of 25 μl reaction mixture, as described by Li, et al., id., using Smart Cycler II (Cepheid, Sunnyvale, Calif.). The data were analyzed using Ct method and were normalized by RNU6B expression in each sample.
# [1] = test system: NF-κB DNA binding activity; experiment: EMSA for NF-κB DNA binding activity, three PC lines; assay type: cell-based, human; conditions: 72 h; CDF/CUR 1 or 4 μMol/L, GEM 10 nMol/L
# Procedure: The DNA binding activity of the nuclear transcription factor, NF-κB was assessed in the BxPC-3, MIAPaCa-E, and MIAPaCa-M cell lines by EMSA. […] The cells were lysed in 400 μl of lysis buffer and the reaction was set up as described earlier in Ali, et al., id. The gel was scanned using an Odyssey Infrared Imaging System, (LI-COR, Inc., Lincoln, Nebr.). Equal protein loading was ensured by immunoblotting 10 μg of nuclear protein and probing with anti-retinoblastoma antibody.
# [2] = test system: NF-κB DNA binding activity; experiment: EMSA for NF-κB DNA binding activity in tumor tissue; assay type: in vivo, mice; conditions: MIA PaCa-2 tumors
# Procedure: Nuclear extracts were prepared from tumor tissue induced by the MIA PaCa-2 cells using an homogenizer with 400 μl of ice cold lysis buffer extracted as described earlier. EMSA was performed using the Odyssey Infrared Imaging System with NF-κβ 1RDye labeled oligonucleotide from LI-COR, Inc. (Lincoln, Nebr.). An NF-Kβ competition control study was conducted using unlabeled NF-Kβ consensus oligonucleotide. The samples were loaded and run at 30 mA for 1 hour. The gel was scanned using Odyssey Infrared Imaging System (LI-COR, Inc.).
smiles,measurement,setting,value
"Nc1ccn([C@@H]2O[C@H](CO)[C@@H](O)C2(F)F)c(=O)n1 [GEM, gemcitabine]",PGE2 secretion level,PGE2,substantial increase in the level of PGE2 secretion
same,expression of miR-200b and miR-200c,miR-200b and miR-200c,increased expression of miR-200b and miR-200c
same,NF-κβ DNA binding activity,[1],activation of NF-κβ in all three cell lines
same,NF-κβ activation in tumor tissue,[2],activated NF-κβ levels
